Experimental data published in US20080213250A1, “Use of Eph Receptor Inhibitors for the Treatment of Neurodegenerative Diseases” (priority 2004, published 2008).

Molecular target: T1, EphB1 (Mus musculus, UniProt Q8CBF3)
T1 sequence (Q8CBF3 18-984): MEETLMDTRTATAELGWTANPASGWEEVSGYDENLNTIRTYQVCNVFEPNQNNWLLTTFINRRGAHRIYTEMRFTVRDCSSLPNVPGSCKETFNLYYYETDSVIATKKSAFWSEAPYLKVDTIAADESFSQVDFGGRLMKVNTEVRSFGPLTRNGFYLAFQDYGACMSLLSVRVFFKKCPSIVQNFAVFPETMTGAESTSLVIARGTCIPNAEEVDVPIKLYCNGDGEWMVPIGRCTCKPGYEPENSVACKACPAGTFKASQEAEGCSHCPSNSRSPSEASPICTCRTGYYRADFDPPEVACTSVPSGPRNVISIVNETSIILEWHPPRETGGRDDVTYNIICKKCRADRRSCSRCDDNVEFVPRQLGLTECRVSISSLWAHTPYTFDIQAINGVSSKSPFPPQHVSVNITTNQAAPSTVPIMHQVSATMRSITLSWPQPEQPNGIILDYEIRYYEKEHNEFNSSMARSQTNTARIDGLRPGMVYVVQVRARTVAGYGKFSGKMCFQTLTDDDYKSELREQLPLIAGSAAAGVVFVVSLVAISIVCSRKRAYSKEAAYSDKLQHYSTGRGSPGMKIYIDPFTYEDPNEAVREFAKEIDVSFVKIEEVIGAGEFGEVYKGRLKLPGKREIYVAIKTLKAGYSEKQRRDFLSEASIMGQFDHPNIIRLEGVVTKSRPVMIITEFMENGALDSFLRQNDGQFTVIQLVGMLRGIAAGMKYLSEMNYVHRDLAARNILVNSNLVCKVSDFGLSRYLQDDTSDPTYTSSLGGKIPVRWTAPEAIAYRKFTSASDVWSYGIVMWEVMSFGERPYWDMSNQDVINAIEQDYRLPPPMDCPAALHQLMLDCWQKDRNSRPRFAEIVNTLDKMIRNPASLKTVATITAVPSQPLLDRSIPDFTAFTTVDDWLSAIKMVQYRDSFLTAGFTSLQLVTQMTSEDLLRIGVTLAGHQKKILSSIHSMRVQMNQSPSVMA
Assay: Chemical proteomics pull-down with immobilized compound, LC-MS/MS identification
Details: maximum in any chemical proteomics experiment

maximal number of non-redundant peptides identified, EphB1: 5
Compound: CSc1cccc(Nc2ncc3cc(-c4c(Cl)cccc4Cl)c(=O)n(C)c3n2)c1 [PD173955]
